# Structures can show the parent of a compound that is named as a salt.
# Tested on: HBsAg
# Assay: HBsAg assay (chemiluminescence immunoassay of secreted HBsAg in HepG2.2.15 culture supernatant)
# Format: cell-based, HBV
# Details: HBsAg secretion reduced by 50% vs no drug control; HepG2.2.15 cells; CLIA kit
# Procedure: HepG2.2.15 cells (Acs et al. Proc Natl Acad Sci USA, 84, (1987), 4641-4), a constitutively HBV-expressing cell line were cultured in DMEM+Glutamax-I medium (Invitrogen, Carlsbad, Calif., USA), supplemented with 10% fetal bovine serum (Invitrogen) and G418 (Invitrogen) at a final concentration of 200 mg/L and maintained in 5% CO2 at 37° C.
# HepG2.2.15 cells were seeded in duplicate into white, 96-well plates at 1.5×10^4 cells/well. The cells were treated with a three-fold serial dilution series of the compounds in DMSO. The final DMSO concentration in all wells was 1% and DMSO was used as no drug control.
# The HBsAg chemiluminescence immunoassay (CLIA) kit (Autobio Diagnostics Co., Zhengzhou, China, Catalog number: CL0310-2) was used to measure the levels of secreted HBV antigens semi-quantitatively. For the detection 50 μL/well culture supernatant was used and HBsAg was quantified using HBsAg chemiluminescence immunoassay (CLIA) kit (Autobio Diagnostics Co., Zhengzhou, China, Catalog number: CL0310-2), 50 μL of the supernatant was transferred to the CLIA assay plate and 50 μL of enzyme conjugate reagent was added into each well. The plates were sealed and gently agitated for 1 hour at room temperature. The supernatant-enzyme-mixture was discarded and wells were washed 6 times with 300 μL of PBS. The residual liquid was removed by plating the CLIA plate right side down on absorbent tissue paper. 25 μL of substrates A and B were added to each well. Luminance was measured using a luminometer (Mithras LB 940 Multimode Microplate Reader) after 10 minutes incubation. Dose-response curves were generated and the IC50 value was extrapolated by using the E-WorkBook Suite (ID Business Solutions Ltd., Guildford, UK).
# The compounds of the present invention were tested for their capacity to inhibit HBsAg as described herein.
row,SMILES,IC50 [nM]
1,"COc1cc2c(cc1OCCCCCCO)CC(C(C)(C)C)n1cc(C(=O)O)c(=O)cc1-2 (single isomer, unassigned; (+)) [Example 156, (+)-6-tert-butyl-9-(6-hydroxyhexoxy)-10-methoxy-2-oxo-6,7-dihydrobenzo[a]quinolizine-3-carboxylic acid]",1
2,"COc1cc2c(cc1OCCCCCCNC(=O)OC(C)(C)C)CC(C(C)(C)C)n1cc(C(=O)O)c(=O)cc1-2 (single isomer, unassigned; (+)) [Example 162, (+)-9-[6-(tert-butoxycarbonylamino)hexoxy]-6-tert-butyl-10-methoxy-2-oxo-6,7-dihydrobenzo[a]quinolizine-3-carboxylic acid]",2
3,"COc1cc2c(cc1OCCCCCCCCNC(=O)OC(C)(C)C)CC(C(C)(C)C)n1cc(C(=O)O)c(=O)cc1-2 (single isomer, unassigned; (+)) [Example 168, (+)-9-[8-(tert-butoxycarbonylamino)octoxy]-6-tert-butyl-10-methoxy-2-oxo-6,7-dihydrobenzo[a]quinolizine-3-carboxylic acid]",6
4,"COc1cc2c(cc1OCCCSC)CC(C(C)(C)C)n1cc(C(=O)O)c(=O)cc1-2 (single isomer, unassigned; (+)) [Example 184, (+)-6-tert-butyl-10-methoxy-9-(3-methylsulfanylpropoxy)-2-oxo-6,7-dihydrobenzo[a]quinolizine-3-carboxylic acid]",1
5,"COc1cc2c(cc1OCCCS(C)(=O)=O)CC(C(C)(C)C)n1cc(C(=O)O)c(=O)cc1-2 (single isomer, unassigned; (+)) [Example 187, (+)-6-tert-butyl-10-methoxy-9-(3-methylsulfonylpropoxy)-2-oxo-6,7-dihydrobenzo[a]quinolizine-3-carboxylic acid]",13
6,"COc1cc2c(cc1OCCCN1CCOCC1)CC(C(C)(C)C)n1cc(C(=O)O)c(=O)cc1-2 (single isomer, unassigned; (+)) [Example 193, (+)-6-tert-butyl-10-methoxy-9-(3-morpholinopropoxy)-2-oxo-6,7-dihydrobenzo[a]quinolizine-3-carboxylic acid]",3
7,"COCCCOc1cc2c(cc1OC)-c1cc(=O)c(C(=O)O)cn1C(CC(F)(F)F)C2 (single isomer, unassigned; (+)) [Example 200, (+)-10-methoxy-9-(3-methoxypropoxy)-2-oxo-6-(2,2,2-trifluoroethyl)-6,7-dihydrobenzo[a]quinolizine-3-carboxylic acid]",24
8,"COCCCOc1cc2c(cc1Cl)-c1cc(=O)c(C(=O)O)cn1C(C(C)(C)C)C2 (single isomer, unassigned; (+)) [Example 203, (+)-6-tert-butyl-10-chloro-9-(3-methoxypropoxy)-2-oxo-6,7-dihydrobenzo[a]quinolizine-3-carboxylic acid]",0.3
9,"COCCCOc1cc2c(c(F)c1F)-c1cc(=O)c(C(=O)O)cn1C(C(C)C)C2 (single isomer, unassigned; (+)) [Example 214, (+)-10,11-difluoro-6-isopropyl-9-(3-methoxypropoxy)-2-oxo-6,7-dihydrobenzo[a]quinolizine-3-carboxylic acid]",15
10,"CCOc1cc2c(cc1OCC)-c1cc(=O)c(C(=O)O)cn1C(CC)C2 (single isomer, unassigned; (-)) [Example 7, (−)-9,10-diethoxy-6-ethyl-2-oxo-6,7-dihydrobenzo[a]quinolizine-3-carboxylic acid]",1900
11,"CCC1Cc2cc(OCc3ccccc3)c(OC)cc2-c2cc(=O)c(C(=O)O)cn21 (single isomer, unassigned; (-)) [Example 10, (−)-9-benzyloxy-6-ethyl-10-methoxy-2-oxo-6,7-dihydrobenzo[a]quinolizine-3-carboxylic acid]",1240
12,"CCC1Cc2cc(OCC(F)(F)F)c(OC)cc2-c2cc(=O)c(C(=O)O)cn21 (single isomer, unassigned; (-)) [Example 12, (−)-6-ethyl-10-methoxy-2-oxo-9-(2,2,2-trifluoroethoxy)-6,7-dihydrobenzo[a]quinolizine-3-carboxylic acid]",5200
13,"CCC1Cc2cc(OCC(C)(C)CO)c(OC)cc2-c2cc(=O)c(C(=O)O)cn21 (single isomer, unassigned; (-)) [Example 24, (−)-6-ethyl-9-(3-hydroxy-2,2-dimethyl-propoxy)-10-methoxy-2-oxo-6,7-dihydrobenzo[a]quinolizine-3-carboxylic acid]",1350
14,"CCC1Cc2cc(OCCOC)c(OC)cc2-c2cc(=O)c(C(=O)O)cn21 (single isomer, unassigned; (-)) [Example 29, (−)-6-ethyl-10-methoxy-9-(2-methoxyethoxy)-2-oxo-6,7-dihydrobenzo[a]quinolizine-3-carboxylic acid]",1950
15,"CCC1Cc2cc(OCC3CC3)c(OC)cc2-c2cc(=O)c(C(=O)O)cn21 (single isomer, unassigned; (-)) [Example 32, (−)-9-(cyclopropylmethoxy)-6-ethyl-10-methoxy-2-oxo-6,7-dihydrobenzo[a]quinolizine-3-carboxylic acid]",75
16,"CCC1Cc2cc(OCC(C)C)c(OC)cc2-c2cc(=O)c(C(=O)O)cn21 (single isomer, unassigned; (-)) [Example 35, (−)-6-ethyl-9-isobutoxy-10-methoxy-2-oxo-6,7-dihydrobenzo[a]quinolizine-3-carboxylic acid]",1390
17,"CCOc1cc2c(cc1OC)-c1cc(=O)c(C(=O)O)cn1C(CC)C2 (single isomer, unassigned; (-)) [Example 38, (−)-9-ethoxy-6-ethyl-10-methoxy-2-oxo-6,7-dihydrobenzo[a]quinolizine-3-carboxylic acid]",1810
18,"CCC1Cc2cc(OCCCOC)c(OC)cc2-c2cc(=O)c(C(=O)O)cn21 (single isomer, unassigned; (-)) [Example 41, (−)-6-ethyl-10-methoxy-9-(3-methoxypropoxy)-2-oxo-6,7-dihydrobenzo[a]quinolizine-3-carboxylic acid]",5770
19,"CCOCCOc1cc2c(cc1OC)-c1cc(=O)c(C(=O)O)cn1C(CC)C2 (single isomer, unassigned; (-)) [Example 44, (−)-9-(2-ethoxyethoxy)-6-ethyl-10-methoxy-2-oxo-6,7-dihydrobenzo[a]quinolizine-3-carboxylic acid]",5460
20,"CCC1Cc2cc(OCC(F)F)c(OC)cc2-c2cc(=O)c(C(=O)O)cn21 (single isomer, unassigned; (-)) [Example 47, (−)-9-(2,2-difluoroethoxy)-6-ethyl-10-methoxy-2-oxo-6,7-dihydrobenzo[a]quinolizine-3-carboxylic acid]",3400
21,"CCC1Cc2cc(OCC3CCOCC3)c(OC)cc2-c2cc(=O)c(C(=O)O)cn21 (single isomer, unassigned; (-)) [Example 50, (−)-6-ethyl-10-methoxy-2-oxo-9-(tetrahydropyran-4-ylmethoxy)-6,7-dihydrobenzo[a]quinolizine-3-carboxylic acid]",400
22,"COc1cc2c(cc1OC)-c1cc(=O)c(C(=O)O)cn1C(C)C2 (single isomer, unassigned; (-)) [Example 68, (−)-9,10-dimethoxy-6-methyl-2-oxo-6,7-dihydrobenzo[a]quinolizine-3-carboxylic acid]",5670
23,"CCCOc1cc2c(cc1OC)-c1cc(=O)c(C(=O)O)cn1C(CC)C2 (single isomer, unassigned; (-)) [Example 80, (−)-6-ethyl-10-methoxy-2-oxo-9-propoxyl-6,7-dihydrobenzo[a]quinolizine-3-carboxylic acid]",190
24,"CCC1Cc2cc(OC)c(C3CC3)cc2-c2cc(=O)c(C(=O)O)cn21 (single isomer, unassigned; (-)) [Example 91, (−)-10-cyclopropyl-6-ethyl-9-methoxy-2-oxo-6,7-dihydrobenzo[a]quinolizine-3-carboxylic acid]",500

# Same assay, conditions: HBsAg secretion reduced by 50% vs no drug control; HepG2.2.15 cells; CLIA kit; hydrochloride
row,SMILES,IC50 [nM]
1,"COc1cc2c(cc1OCCCCCCN)CC(C(C)(C)C)n1cc(C(=O)O)c(=O)cc1-2 (single isomer, unassigned; (+)) [Example 164, (+)-9-(6-aminohexoxy)-6-tert-butyl-10-methoxy-2-oxo-6,7-dihydrobenzo[a]quinolizine-3-carboxylic acid hydrochloride]",3
2,"COc1cc2c(cc1OCCCCCCCCN)CC(C(C)(C)C)n1cc(C(=O)O)c(=O)cc1-2 (single isomer, unassigned; (+)) [Example 170, (+)-9-(8-aminooctoxy)-6-tert-butyl-10-methoxy-2-oxo-6,7-dihydrobenzo[a]quinolizine-3-carboxylic acid hydrochloride]",8
3,"COc1cc2c(cc1OCCCCCN)CC(C(C)(C)C)n1cc(C(=O)O)c(=O)cc1-2 (single isomer, unassigned; (+)) [Example 173, (+)-9-(5-aminopentoxy)-6-tert-butyl-10-methoxy-2-oxo-6,7-dihydrobenzo[a]quinolizine-3-carboxylic acid hydrochloride]",21

# Reference: US9458153B2, “Dihydroquinolizinones for the treatment and prophylaxis of hepatitis B virus infection” (Hoffmann-La Roche Inc., priority 2014, dated 2016)
